Laboratory results: US3960877A, “N-monosubstituted-2,3-pyridinedicarboxamides, and related compounds” (priority 1974, dated 1976)

Assays:
Type in all cases: in vivo
Alfalfa [1] = assay: Preemergence herbicidal activity, % control of plant growth; conditions: Medicago sativa, pre-emergence, 504 h, 16 lb/acre, about 3 weeks
In short: (§1)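 Rating is average percent control of plant growth, judged visually about 3 weeks after application relative to untreated areas. Application: soil surface sprayed at 16 lb/acre with ~2 wt% compound solution in acetone and/or alcohol, immediately after seeding.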

Barnyard Grass [2] = assay: as above; conditions: Echinochloa crus-galli, pre-emergence, 504 h; barnyard grass; 16 lb/acre; about 3 weeks
In short: as §1

Cheatgrass [3] = assay: as above; conditions: Bromus tectorum, pre-emergence, 504 h, 16 lb/acre, about 3 weeks
In short: as §1

Chickweed [4] = assay: as above; conditions: pre-emergence, 504 h, 16 lb/acre, about 3 weeks
In short: as §1

Corn [5] = assay: as above; conditions: Zea mays, pre-emergence, 504 h, 16 lb/acre, about 3 weeks
In short: as §1

Crabgrass [6] = assay: as above; conditions: Digitaria sanguinalis, pre-emergence, 504 h, 16 lb/acre, about 3 weeks
In short: as §1

Cucumber [7] = assay: as above; conditions: Cucumis sativus, pre-emergence, 504 h, 16 lb/acre, about 3 weeks
In short: as §1

Curled Dock [8] = assay: as above; conditions: pre-emergence, 504 h, 16 lb/acre, about 3 weeks
In short: as §1

Foxtail [9] = assay: as above; conditions: Setaria, pre-emergence, 504 h, 16 lb/acre, about 3 weeks
In short: as §1

Johnsongrass [10] = assay: as above; conditions: Sorghum halepense, pre-emergence, 504 h, 16 lb/acre, about 3 weeks
In short: as §1

Lambsquarters [11] = assay: as above; conditions: Chenopodium album, pre-emergence, 504 h, 16 lb/acre, about 3 weeks
In short: as §1

Nutgrass [12] = assay: as above; conditions: pre-emergence, 504 h, 16 lb/acre, about 3 weeks
In short: as §1

Pigweed [13] = assay: as above; conditions: Amaranthus retroflexus, pre-emergence, 504 h, 16 lb/acre, about 3 weeks
In short: as §1

Snapbeans [14] = assay: as above; conditions: pre-emergence, 504 h, 16 lb/acre, about 3 weeks
In short: as §1

Velvetleaf [15] = assay: as above; conditions: Abutilon theophrasti, pre-emergence, 504 h, 16 lb/acre, about 3 weeks
In short: as §1

Wild Oats [16] = assay: as above; conditions: Avena fatua, pre-emergence, 504 h, 16 lb/acre, about 3 weeks
In short: as §1

Yellow Rocket [17] = assay: as above; conditions: pre-emergence, 504 h, 16 lb/acre, about 3 weeks
In short: as §1

Alfalfa [18] = assay: Postemergence herbicidal activity, % control of plant growth; conditions: Medicago sativa, post-emergence, 264 h, 8 lb/acre, about 11 days
In short: (§2)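 Visual scoring (~11 d post-spray) of % plant growth control. Treatment: 8 lb/acre postemergence, ~2 wk after sowing.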

Barnyard Grass [19] = assay: as above; conditions: Echinochloa crus-galli, post-emergence, 264 h, 8 lb/acre, about 11 days
In short: as §2

Cheatgrass [20] = assay: as above; conditions: Bromus tectorum, post-emergence, 264 h, 8 lb/acre, about 11 days
In short: as §2

Chickweed [21] = assay: as above; conditions: post-emergence, 264 h, 8 lb/acre, about 11 days
In short: as §2

Corn [22] = assay: as above; conditions: Zea mays, post-emergence, 264 h, 8 lb/acre, about 11 days
In short: as §2

Crabgrass [23] = assay: as above; conditions: Digitaria sanguinalis, post-emergence, 264 h, 8 lb/acre, about 11 days
In short: as §2

Cucumber [24] = assay: as above; conditions: Cucumis sativus, post-emergence, 264 h, 8 lb/acre, about 11 days
In short: as §2

Curled Dock [25] = assay: as above; conditions: post-emergence, 264 h, 8 lb/acre, about 11 days
In short: as §2

Foxtail [26] = assay: as above; conditions: Setaria, post-emergence, 264 h, 8 lb/acre, about 11 days
In short: as §2

Johnsongrass [27] = assay: as above; conditions: Sorghum halepense, post-emergence, 264 h, 8 lb/acre, about 11 days
In short: as §2

Lambsquarters [28] = assay: as above; conditions: Chenopodium album, post-emergence, 264 h, 8 lb/acre, about 11 days
In short: as §2

Nutgrass [29] = assay: as above; conditions: post-emergence, 264 h, 8 lb/acre, about 11 days
In short: as §2

Pigweed [30] = assay: as above; conditions: Amaranthus retroflexus, post-emergence, 264 h, 8 lb/acre, about 11 days
In short: as §2

Snapbeans [31] = assay: as above; conditions: post-emergence, 264 h, 8 lb/acre, about 11 days
In short: as §2

Velvetleaf [32] = assay: as above; conditions: Abutilon theophrasti, post-emergence, 264 h, 8 lb/acre, about 11 days
In short: as §2

Wild Oats [33] = assay: as above; conditions: Avena fatua, post-emergence, 264 h, 8 lb/acre, about 11 days
In short: as §2

Yellow Rocket [34] = assay: as above; conditions: post-emergence, 264 h, 8 lb/acre, about 11 days
In short: as §2

Compound	pest or weed control at 17933.6 g/ha (Alfalfa [1]) [%]	pest or weed control at 17933.6 g/ha (Barnyard Grass [2]) [%]	pest or weed control at 17933.6 g/ha (Cheatgrass [3]) [%]	pest or weed control at 17933.6 g/ha (Chickweed [4]) [%]	plant injury at 17933.6 g/ha (Corn [5]) [%]	pest or weed control at 17933.6 g/ha (Crabgrass [6]) [%]	pest or weed control at 17933.6 g/ha (Cucumber [7]) [%]	pest or weed control at 17933.6 g/ha (Curled Dock [8]) [%]	pest or weed control at 17933.6 g/ha (Foxtail [9]) [%]	pest or weed control at 17933.6 g/ha (Johnsongrass [10]) [%]	pest or weed control at 17933.6 g/ha (Lambsquarters [11]) [%]	pest or weed control at 17933.6 g/ha (Nutgrass [12]) [%]	pest or weed control at 17933.6 g/ha (Pigweed [13]) [%]	pest or weed control at 17933.6 g/ha (Snapbeans [14]) [%]	pest or weed control at 17933.6 g/ha (Velvetleaf [15]) [%]	pest or weed control at 17933.6 g/ha (Wild Oats [16]) [%]	pest or weed control at 17933.6 g/ha (Yellow Rocket [17]) [%]	pest or weed control at 8966.8 g/ha (Alfalfa [18]) [%]	pest or weed control at 8966.8 g/ha (Barnyard Grass [19]) [%]	pest or weed control at 8966.8 g/ha (Cheatgrass [20]) [%]	further results
C=CCn1c(=O)[nH]c2cccnc2c1=O [3-allyl-pyrido[3,2-d]pyrimidine-2,4(1H,3H)-dione]	100	90	100	100	50	100	100	100	90	90	100	20	100	100	90	100	100	100	100	30	pest or weed control at 8966.8 g/ha (Chickweed [21]): 100%; plant injury at 8966.8 g/ha (Corn [22]): 30%; pest or weed control at 8966.8 g/ha (Crabgrass [23]): 100%; pest or weed control at 8966.8 g/ha (Cucumber [24]): 100%; pest or weed control at 8966.8 g/ha (Curled Dock [25]): 100%; pest or weed control at 8966.8 g/ha (Foxtail [26]): 100%; pest or weed control at 8966.8 g/ha (Johnsongrass [27]): 100%; pest or weed control at 8966.8 g/ha (Lambsquarters [28]): 100%; pest or weed control at 8966.8 g/ha (Nutgrass [29]): 30%; pest or weed control at 8966.8 g/ha (Pigweed [30]): 100%; pest or weed control at 8966.8 g/ha (Snapbeans [31]): 100%; pest or weed control at 8966.8 g/ha (Velvetleaf [32]): 100%; pest or weed control at 8966.8 g/ha (Wild Oats [33]): 20%; pest or weed control at 8966.8 g/ha (Yellow Rocket [34]): 100%
CCCCC(CC)Cn1c(=O)[nH]c2cccnc2c1=O (stereo not drawn) [3-(2-ethylhexyl)pyrido[3,2-d]pyrimidine-2,4(1H,3H)-dione]	0	0	0	70	0	10	10	0	0	0	30	0	0	0	0	0	90	0	0	0	pest or weed control at 8966.8 g/ha (Chickweed [21]): 50%; plant injury at 8966.8 g/ha (Corn [22]): 0%; pest or weed control at 8966.8 g/ha (Crabgrass [23]): 10%; pest or weed control at 8966.8 g/ha (Cucumber [24]): 20%; pest or weed control at 8966.8 g/ha (Curled Dock [25]): 10%; pest or weed control at 8966.8 g/ha (Foxtail [26]): 0%; pest or weed control at 8966.8 g/ha (Johnsongrass [27]): 0%; pest or weed control at 8966.8 g/ha (Lambsquarters [28]): 100%; pest or weed control at 8966.8 g/ha (Nutgrass [29]): 0%; pest or weed control at 8966.8 g/ha (Pigweed [30]): 100%; pest or weed control at 8966.8 g/ha (Snapbeans [31]): 0%; pest or weed control at 8966.8 g/ha (Velvetleaf [32]): 0%; pest or weed control at 8966.8 g/ha (Wild Oats [33]): 0%; pest or weed control at 8966.8 g/ha (Yellow Rocket [34]): 90%
CCCn1c(=O)[nH]c2cccnc2c1=O [3-propyl-pyrido[3,2-d]pyrimidine-2,4(1H,3H)-dione]	100	100	100	100	100	100	100	100	100	100	100	20	100	100	100	100	100	100	100	100	pest or weed control at 8966.8 g/ha (Chickweed [21]): 100%; plant injury at 8966.8 g/ha (Corn [22]): 60%; pest or weed control at 8966.8 g/ha (Crabgrass [23]): 100%; pest or weed control at 8966.8 g/ha (Cucumber [24]): 100%; pest or weed control at 8966.8 g/ha (Curled Dock [25]): 100%; pest or weed control at 8966.8 g/ha (Foxtail [26]): 100%; pest or weed control at 8966.8 g/ha (Johnsongrass [27]): 100%; pest or weed control at 8966.8 g/ha (Lambsquarters [28]): 100%; pest or weed control at 8966.8 g/ha (Nutgrass [29]): 70%; pest or weed control at 8966.8 g/ha (Pigweed [30]): 100%; pest or weed control at 8966.8 g/ha (Snapbeans [31]): 100%; pest or weed control at 8966.8 g/ha (Velvetleaf [32]): 100%; pest or weed control at 8966.8 g/ha (Wild Oats [33]): 90%; pest or weed control at 8966.8 g/ha (Yellow Rocket [34]): 100%
